Source: patent publication US20090264382A1, “Methods for Treating Hematopoietic Neoplasms” (priority 2007, published 2009)
Where a SMILES comes first, the peptide text is derived from it. The star is where a group is joined. Cbz = O=C(OCc1ccccc1)*; CH2F = FC*

Tests used:
Format in all cases: cell-based, human
[1] = tested on: HL60 cells; assay: Reversal of CA4P-induced apoptosis by caspase inhibitors and ROS scavenger, Annexin V/PI
Procedure: Leukemic cells were treated with or without CA4P for 48 hours in presence of caspase inhibitor Q-VD and the percentage of apoptotic leukemic cells was determined by Annexin V and propidium iodide staining using flow cytometry. Percentage of alive Annexin V(−)/PI(−) cells was plotted.
HL-60 cells were treated with or without CA4P for 48 hours in presence of another ROS scavenger, deferoxamine (DFX), and caspase inhibitor Q-VD and the percentage of apoptotic leukemic cells was determined by Annexin V and propidium iodide staining using flow cytometry.

[2] = tested on: leukemic cells; assay: Intracellular ROS detection with H2DCFDA
Procedure: Intracellular ROS were detected as previously described (Krejsa & Schieven, Methods Mol Biol 99:35-47 (2000)). Briefly, leukemic cells were loaded with 2 μM H2DCFDA (Molecular Probes) in assay buffer (RPMI with 10 mM HEPES) for 30 min. at 37° C. and mean fluorescent intensity was measured by flow cytometry. Results are shown from triplicate measurements (±SEM) and are representative of three independent experiments (*p<0.05 as compared with untreated cells; n=3).

[3] = tested on: leukemic cells (HL60, R81, U937, KG1a, THP-1); assay: Protection from CA4P-mediated cell death by ascorbic acid, trypan blue exclusion; settings: CA4P 5 or 10 nM, 48 hours
Procedure: Leukemic cells were treated with 5 nM (HL60, R81, U937) or 10 nM (KG1a, THP-1) for 48 hours with the ascorbic acid concentrations indicated and viable cells determined by trypan blue exclusion. Results of three experiments in triplicate are expressed as percentage of viable cells compared to control±SEM (*p<0.05 as compared with CA4P-untreated cells; n=3).

[4] = tested on: caspase-3; assay: CA4P-induced caspase-3 activation
[5] = tested on: KG1a leukemic cells; assay: Release of nuclear HMG1 protein into supernatant (necrosis marker), Western blot; settings: 24 hours, CA4P 20 mM, staurosporine 100 μM as printed
Procedure: Nonetheless, to rule out the possibility that CA4P may trigger necrotic cell death in subsets of the leukemic cells, the release of nuclear HMG1 protein into the culture supernatant, which has been described as a sensitive and highly specific marker for necrotic cell death (Scaffidi, et al. 2002. Nature 418, 191-5), was quantified. For detection of HMG1 protein, KG1a leukemic cells (1×106 in 2 ml X-vivo/5% FBS) were incubated with 100 μM staurosporine to induce apoptosis, freeze-thawed three times to induce necrosis, or treated with 20 mM CA4P for 24 hours. Cells were spun down, pelleted and the supernatant subjected to Western blot for HMG135.

CC(=O)N(O)CCCCCNC(=O)CCC(=O)N(O)CCCCCNC(=O)CCC(=O)N(O)CCCCCN [DFX, deferoxamine]
inhibition of CA4P-induced cell death ([1]; HL60, DFX together with caspase inhibitor Q-VD, 48 hours): up to 71%

O=C1O[C@H]([C@@H](O)CO)C(O)=C1O [ascorbic acid, reference compound]
effect on CA4P-induced ROS accumulation [2]: reversal of ROS accumulation
effect of co-incubation on CA4P-mediated cell death [3]: partial decrease in CA4P-mediated cell death

CC(C)[C@H](NC(=O)c1ccc2ccccc2n1)C(=O)N[C@@H](CC(=O)O)C(=O)COc1c(F)cccc1F [Q-VD, Q-VD-OPh]
CA4P-induced caspase-3 activation [4]: blocked
CA4P induced apoptosis blocked ([1]; HL60 cells, 48 hours, Annexin V/PI): 33%

CN[C@@H]1C[C@H]2O[C@@](C)([C@@H]1OC)n1c3ccccc3c3c4c(c5c6ccccc6n2c5c31)C(=O)NC4 [staurosporine, reference compound]
release of nuclear HMG1 protein into the supernatant [5]: not

COC(=O)C[C@H](NC(=O)[C@H](C)NC(=O)[C@@H](NC(=O)OCc1ccccc1)C(C)C)C(=O)CF [Z-VAD-fmk] (Cbz-Val-Ala-Asp(OMe)-CH2F)
CA4P-induced caspase-3 activation [4]: blocked
effect on CA4P-induced apoptosis ([1]; data not shown): no effect
